Measured values as given in publication PMC9343874, “Comparative Pharmacokinetics of Cinobufacini Capsule and Injection by UPLC-MS/MS” (Frontiers in Pharmacology, 2022).
Where two headings read alike, the source gives them in different places.

Key:
[1] = Pharmacokinetic study in rats after oral administration of cinobufacini capsule (UPLC-MS/MS of plasma); format: in vivo, rat; conditions: for AUC(0-inf) / AUC(0-t) / Cmax / Tmax / CL/F / MRT last / MRT inf / half-life / Vd/F: male, Sprague-Dawley, in vivo, rat plasma, mean ± SD, n = 6; for CL/F: read-out: CLz/F (converted); for MRT last: read-out: MRT0-t; for MRT inf: read-out: MRT0-∞; for half-life: read-out: T1/2z (converted); for Vd/F: read-out: Vz/F
Description: Male Sprague–Dawley rats (weighing 200–220 g) of SPF grade were offered by Sippr/BK laboratory Animal, Corp., Ltd. (Shanghai, China) and fed in the Laboratory Animal Center of the Shanghai University of Traditional Chinese Medicine. All the rats were kept under environmentally controlled conditions with constant temperature (22–24°C) and humidity (60–65%). The animal experiment program in the present research was approved by the Animal Committee of the Shanghai University of Traditional Chinese Medicine (PZSHUTCM210618012).
An Agilent 1290 liquid chromatographic system includes a G4220A quaternary pump, a G1326C column incubator, a G4226A automatic sampler, and a G1330B degasser. The column temperature was set to 35°C. A measure of 5 µL of samples were separated in an Agilent SB-C18 column (2.1 mm ×50 mm, 1.8 μm) and eluted at 0.3 ml/min, followed by gradient elution with water (0.1% V/V formic acid) (A) and acetonitrile (B) (0–1 min, 20%–20% B; 1–3.5 min, 20%–80% B; 4–4.1 min, 80%-20% B; 4.1–6 min, 20% B). The total run time was 6 minutes.
An Agilent 1290 Infinity series UPLC system was combined with an Agilent 6460 series triple quadrupole mass spectrometer (Agilent Technologies, Santa Clara, CA, United States) to quantify all 13 analytes in an ESI-positive ionization mode. Quantitative analysis was performed in an MRM mode. The mass spectrum conditions were as follows: capillary voltage, 4000V; drying gas (N2), gas flow rate: 10 L/min; sprayer, 30 psi; gas temperature 350°C; The delta EMV (+) 200 V; collision gas (N2); dwell time, 25 ms. Agilent’s MassHunter Workstation software was used for data collection, peak area calculation, and quantitative analysis.
A measure of 50 µL of the plasma sample was mixed with 10 µL of the internal standard solution (345 ng/ml) in a 1.5-ml centrifuge tube and vortexed for 5 min. The samples were extracted by 500 µL of ethyl acetate for 5 min and centrifuged at 4°C for 10 min (18000 rpm). All the supernatants were collected into another 1.5-ml centrifuge tube, dried under a gentle stream of nitrogen at 37°C, and then added with 50 µL of 80% methanol for resolution. The resolution samples were centrifuged at 4°C for 10 min (18000 rpm), and 5 µL supernatant was extracted and injected for analysis.
Twenty-four male Sprague–Dawley rats (weigh 200–220 g) were divided into four groups with six rats in each group randomly, including three capsule groups at three different doses and one injection group. In the instructions for cinobufacini capsule and injection, the clinical dosage for adults is 2 g per 70 kg orally and 20 ml per 70 kg intravenously, converting to rat doses of 180 mg/kg and 1.8 ml/kg, respectively.
In the pre-experiments, we compared cinobufacini capsule of 180 mg/kg (one-time clinical dose) and 900 mg/kg (five times of clinical dose) and Cinobufacini injection of 1.8 ml/kg, but concentrations of some compounds in plasma were too low and difficult to be quantified. […] The experimental rats were led to fast the night and were free to get access to water for 12 h before the pharmacokinetic study. After administration, blood samples (approximately 150 μL) of rats were collected via retro-orbital sinus into heparinized centrifuge tubes at 0.05, 0.083, 0.25, 0.5, 0.75, 1, 2, 4, 6, 8, and 10 h. After centrifugation at 5,000 rpm for 10 min, the plasma was transferred to 1.5-ml polypropylene tubes and stored at −80°C until UPLC-MS/MS analysis.
GraphPad Prism software (version 8.0.2) was used to draw the mean plasma concentration–time curves of all analytes. The pharmacokinetic parameters were calculated by DAS 3.2.8 software. Meanwhile, the pharmacokinetic data on rats were presented as mean ± standard deviation (SD). Differences of pharmacokinetic parameters between groups were analyzed by the t-test using SPSS software (version 26.0). Differences were considered significant statistically when the p-values were <0.05 and very significant statistically when the p-values were <0.01.

[2] = Stability of analytes in rat plasma QC samples under storage conditions; format: physicochemical; conditions: n = 6; for Stability during 24 h at 4°C, RE: post-treatment storage in autosampler; for −80°C for 30 days, RE / Three freeze–thaw cycles, RE: rat plasma; for −80°C for 30 days, RE: long-term; for Three freeze–thaw cycles, RE: −80°C to room temperature
Description: The stability of QC samples in six replicates at three concentrations (low, medium, and high levels) was analyzed under different storage conditions: the post-treatment stability was analyzed after storage in an autosampler (4°C) for 24 h. Freeze–thaw stability was investigated after three freeze–thaw cycles (−80°C to room temperature as one cycle). Long-term stability was assessed by analyzing QC samples kept at −80°C for 30 days. The concentrations of the analytes in the plasma samples and the QC samples were calculated by the calibration standard curve prepared each day. The stabilities of analytes were acceptable when the accuracy (RE, %) and precision (RSD, %) of all QC samples in all storage conditions were within ±15% compared to nominal concentrations.

[3] = oral cinobufacini capsule 0.9 g/kg (low)
[4] = oral cinobufacini capsule 1.8 g/kg (medium)
[5] = oral cinobufacini capsule 3.6 g/kg (high)
[6] = high QC level (249.58–250.28 ng/ml)
[7] = medium QC level (49.92–50.06 ng/ml)

| Compound | AUC(0-inf) [1, 3] | AUC(0-t) [1, 3] | Cmax [1, 3] | Tmax [1, 3] | CL/F [1, 3] | MRT last [1, 3] | MRT inf [1, 3] | half-life [1, 3] | Vd/F [1, 3] | AUC(0-inf) [1, 4] | AUC(0-t) [1, 4] | Cmax [1, 4] | Tmax [1, 4] | CL/F [1, 4] | MRT last [1, 4] | MRT inf [1, 4] | half-life [1, 4] | Vd/F [1, 4] | AUC(0-inf) [1, 5] | AUC(0-t) [1, 5] | further results |
| --- | --- | --- | --- | --- | --- | --- | --- | --- | --- | --- | --- | --- | --- | --- | --- | --- | --- | --- | --- | --- | --- |
| C[C@]12CC[C@H](O)C[C@H]1CC[C@@H]1[C@@H]2CC[C@]2(C)[C@@H](c3ccc(=O)oc3)[C@@H](O)[C@H]3O[C@]132 [DCG, desacetylcinobufagin] | 67 ± 15.3 ng·h/mL | 61.7 ± 7.8 ng·h/mL | 17.2 ± 4.77 ng/mL | 49.8 ± 12 min | 13 mL/min/kg | 237 ± 43.8 min | 284 ± 93.6 min | 73.2 ± 48.6 min | 2.8 ± 1.71 L/kg | 112 ± 14.9 ng·h/mL | 100 ± 12.4 ng·h/mL | 35.6 ± 2.59 ng/mL | 53.4 ± 7.8 min | 12 mL/min/kg | 180 ± 37.8 min | 292 ± 27.6 min | 286 ± 31.2 min | 5.62 ± 0.68 L/kg | 150 ± 30 ng·h/mL | 148 ± 30.2 ng·h/mL | Cmax [1, 5]: 56.6 ± 7.79 ng/mL; Tmax [1, 5]: 49.2 ± 7.2 min; CL/F [1, 5]: 17.2 mL/min/kg; MRT last [1, 5]: 146 ± 24.6 min; MRT inf [1, 5]: 159 ± 26.4 min; half-life [1, 5]: 125 ± 36 min; Vd/F [1, 5]: 2.79 ± 1.51 L/kg; time to reach maximum plasma concentration (Cmax) ([1]; rats, after gavage administration of cinobufacini capsule): ≤ 60 min; Stability during 24 h at 4°C, RE [2, 6]: 4.6%; Stability during 24 h at 4°C, RE ([2]; low QC level (4.99–5.00 ng/ml)): 1.5%; Stability during 24 h at 4°C, RE [2, 7]: 6.7%; −80°C for 30 days, RE [2, 6]: −3.8%; −80°C for 30 days, RE ([2]; low QC level (4.99–5.00 ng/ml)): 1.9%; −80°C for 30 days, RE [2, 7]: 3.8%; Three freeze–thaw cycles, RE [2, 6]: −2.8%; Three freeze–thaw cycles, RE ([2]; low QC level (4.99–5.00 ng/ml)): 3.0%; Three freeze–thaw cycles, RE [2, 7]: 4.9% |
| C[C@]12CC[C@H](O)C[C@H]1CC[C@@H]1[C@@H]2[C@H](O)C[C@]2(C)[C@@H](c3ccc(=O)oc3)CC[C@]12O [GBL, gamabufotalin] | 13.6 ± 3.08 ng·h/mL | 10.8 ± 2.45 ng·h/mL | 13.3 ± 5.28 ng/mL | 15 min | 150 mL/min/kg | 24.6 ± 6.6 min | 38.4 ± 9.6 min | 22.2 min | 4.75 ± 0.98 L/kg | 23.4 ± 15 ng·h/mL | 21.9 ± 11.6 ng·h/mL | 21.5 ± 7.57 ng/mL | 27.6 ± 13.8 min | 210 mL/min/kg | 43.8 ± 6 min | 47.4 ± 13.2 min | 16.8 ± 15.6 min | 3.03 ± 2.02 L/kg | 54.5 ± 12.4 ng·h/mL | 54 ± 12 ng·h/mL | Cmax [1, 5]: 49.5 ± 10.9 ng/mL; Tmax [1, 5]: 21.6 ± 12 min; CL/F [1, 5]: 153 mL/min/kg; MRT last [1, 5]: 49.8 ± 7.2 min; MRT inf [1, 5]: 51.6 ± 8.4 min; half-life [1, 5]: 18 ± 9.6 min; Vd/F [1, 5]: 3.74 ± 1.66 L/kg; Stability during 24 h at 4°C, RE [2, 6]: 5.4%; Stability during 24 h at 4°C, RE ([2]; low QC level (4.99–5.00 ng/ml)): 12.0%; Stability during 24 h at 4°C, RE [2, 7]: 10.9%; −80°C for 30 days, RE [2, 6]: −4.9%; −80°C for 30 days, RE ([2]; low QC level (4.99–5.00 ng/ml)): 8.3%; −80°C for 30 days, RE [2, 7]: 12.4%; Three freeze–thaw cycles, RE [2, 6]: −0.6%; Three freeze–thaw cycles, RE ([2]; low QC level (4.99–5.00 ng/ml)): 13.2%; Three freeze–thaw cycles, RE [2, 7]: 10.7% |
